Reference: patent publication US7160881B2, “Crystalline modifications of 2-(3,5-bis-trifluoromethyl-phenyl)-N-[6-(1,1-dioxo-1 λ6-thiomorpholin-4-yl)-4-(4-fluoro-2-methyl-phenyl)-pyridin-3-yl]-N-methyl-isobutyramide” (Hoffmann-La Roche Inc., priority 2003, dated 2007)
Read-outs that look alike come from different tables or passages of the source.

How the values were obtained:
[1] = Dynamic Vapor Sorption (DVS); assay type: physicochemical; settings: from 0 to 90% RH
Text: Dynamic Vapor Sorption (DVS)

[2] = Pharmacokinetics after single oral administration to fed male beagle dogs (plasma concentrations by LC-MS, non-compartmental analysis); assay type: in vivo; settings: for bioavailability (general statement of the description): A: formulations compared with those of B or C modification, amorphous: in microsuspension form; for concentration at 24 h: read-out: C(24 h); for AUC(0-t): read-out: AUC(0–24 h)
Procedure: Four male beagle dogs (age 5 to 6 years, body weight 11 to 14 kg) received single oral doses of 2 mg/kg of 2-(3,5-bis-trifluoromethyl-phenyl)-N-[6-(1,1-dioxo-1λ^6-thiomorpholin-4-yl)-4-(4-fluoro-2-methyl-phenyl)-pyridin-3-yl]-N-methyl-isobutyramide form A and form B (cross-over study design). The formulation was a granulate of the finely milled compound with 20% sodium dodecyl sulfate (SDS) in gelatine capsules.
In addition, four male beagle dogs (age 4 to 7 years, body weight 11 to 14 kg) received a single oral dose of 2 mg/kg of 2-(3,5-bis-trifluoromethyl-phenyl)-N-[6-(1,1-dioxo-1λ^6-thiomorpholin-4-yl)-4-(4-fluoro-2-methyl-phenyl)-pyridin-3-yl]-N-methyl-isobutyramide form C as finely milled compound with 10% SDS in gelatine capsules. The dogs received 200 g commercial dog chow (Pal®, approx. 7% fat content) about 30 minutes before administration of the compound.
Two dogs (age 8 years, body weight 12 to 14 kg) received 5 mg/kg of 2-(3,5-bis-trifluoromethyl-phenyl)-N-[6-(1,1-dioxo-1λ^6-thiomorpholin-4-yl)-4-(4-fluoro-2-methyl-phenyl)-pyridin-3-yl]-N-methyl-isobutyramide as amorphous material orally by gavage as microsuspension. The dogs were fed before and during the experiment.
Plasma samples were drawn at several time points. 2-(3,5-bis-Trifluoromethyl-phenyl)-N-[6-(1,1-dioxo-1λ^6-thiomorpholin-4-yl)-4-(4-fluoro-2-methyl-phenyl)-pyridin-3-yl]-N-methyl-isobutyramide plasma concentrations were determined using a selective LC-MS method with a quantification limit of 10 ng/mL. Pharmacokinetic parameters (e.g. AUC, Cmax) were estimated by non-compartmental analysis using WinNonlin 3.1®.

[3] = beagle, dog, plasma, po, 5 mg/kg, mean, n=2, single oral 5 mg/kg by gavage as microsuspension, fed dogs
[4] = dog Charly, single oral 2 mg/kg, fed male beagle dog, cross-over, granulate with 20% SDS in gelatine capsules, 2 mg/kg
[5] = dog Lars, single oral 2 mg/kg, fed male beagle dog, cross-over, granulate with 20% SDS in gelatine capsules, 2 mg/kg
[6] = dog Lupo, single oral 2 mg/kg, fed male beagle dog, cross-over, granulate with 20% SDS in gelatine capsules, 2 mg/kg
[7] = dog Mickey, single oral 2 mg/kg, fed male beagle dog, cross-over, granulate with 20% SDS in gelatine capsules, 2 mg/kg
[8] = male, beagle, dog, plasma, po, 2 mg/kg, dog Lars, single oral 2 mg/kg, fed male beagle dog, cross-over, granulate with 20% SDS in gelatine capsules
[9] = male, beagle, dog, plasma, po, 2 mg/kg, mean, n=4, single oral 2 mg/kg, fed male beagle dogs, cross-over, granulate with 20% SDS in gelatine capsules
[10] = mean, n=4, single oral 2 mg/kg, fed male beagle dogs, cross-over, granulate with 20% SDS in gelatine capsules, 2 mg/kg
[11] = single oral 2 mg/kg, fed male beagle dogs, cross-over
[12] = male, beagle, dog, plasma, po, 2 mg/kg, mean, n=4, single oral 2 mg/kg, fed male beagle dogs, finely milled compound with 10% SDS in gelatine capsules
[13] = single oral 2 mg/kg, fed male beagle dogs

## Cc1cc(F)ccc1-c1cc(N2CCS(=O)(=O)CC2)ncc1N(C)C(=O)C(C)(C)c1cc(C(F)(F)F)cc(C(F)(F)F)c1 [Example 7, 2-(3,5-Bis-trifluoromethyl-phenyl)-N-[6-(1,1-dioxo-1λ^6-thiomorpholin-4-yl)-4-(4-fluoro-2-methyl-phenyl)-pyridin-3-yl]-N-methyl-isobutyramide]
other
  melting point: 135 to 138 °C

## Cc1cc(F)ccc1-c1cc(N2CCS(=O)(=O)CC2)ncc1N(C)C(=O)C(C)(C)c1cc(C(F)(F)F)cc(C(F)(F)F)c1 [amorphous material, 2-(3,5-bis-trifluoromethyl-phenyl)-N-[6-(1,1-dioxo-1λ^6-thiomorpholin-4-yl)-4-(4-fluoro-2-methyl-phenyl)-pyridin-3-yl]-N-methyl-isobutyramide]
[1]
  reversible uptake of water (DVS): 0.8 %-w/w
[2]
  bioavailability (general statement of the description): improved bioavailability
[2]; beagle dogs, amorphous as microsuspension
  exposure after oral administration (ranking of forms): highest
[2]; beagle, dog, plasma, oral, 5 mg/kg, mean, n=2, 5 mg/kg oral microsuspension, values normalized to 2 mg/kg
  concentration at 24 h: 49.2 ng/mL
[2]; beagle, dog, plasma, po, 5 mg/kg, mean, n=2, 5 mg/kg oral microsuspension, values normalized to 2 mg/kg
  AUC(0-t): 4160 ng·h/mL
[2]; beagle, dog, plasma, po, 5 mg/kg, mean, n=2, 5 mg/kg oral microsuspension, values normalized to 2 mg/kg, read-out: Cmax
  Cmax: 1220 ng/mL
[2]; [3]
  AUC(0-t): 10400 ng·h/mL
  concentration at 24 h: 123 ng/mL
[2]; beagle, dog, plasma, po, 5 mg/kg, mean, n=2, single oral 5 mg/kg by gavage as microsuspension, fed dogs, read-out: Cmax
  Cmax: 3050 ng/mL
[2]; mean, n=2, 5 mg/kg oral microsuspension, values normalized to 2 mg/kg
  F: 24.5%

## Cc1cc(F)ccc1-c1cc(N2CCS(=O)(=O)CC2)ncc1N(C)C(=O)C(C)(C)c1cc(C(F)(F)F)cc(C(F)(F)F)c1 [Form A, 2-(3,5-bis-trifluoromethyl-phenyl)-N-[6-(1,1-dioxo-1λ^6-thiomorpholin-4-yl)-4-(4-fluoro-2-methyl-phenyl)-pyridin-3-yl]-N-methyl-isobutyramide]
[1]; listed as modification A
  reversible uptake of water (DVS): 3.1 %-w/w
[2]
  bioavailability (general statement of the description): improved bioavailability
[2]; beagle dogs, powder in gelatine capsules containing sodium dodecyl sulfate
  bioavailability among the three crystalline polymorphs A, B, and C: highest bioavailability
[2]; [4]
  AUC(0–24 h): 3720 ng·h/mL
  C(24 h): 47.6 ng/mL
  Cmax: 391 ng/mL
  F: 24.5%
[2]; [5]
  F: 18.2%
[2]; [6]
  AUC(0–24 h): 2490 ng·h/mL
  F: 16.2%
[2]; [7]
  AUC(0–24 h): 2900 ng·h/mL
  F: 17.4%
[2]; [8]
  AUC(0-t): 2520 ng·h/mL
  concentration at 24 h: 28.2 ng/mL
[2]; male, beagle, dog, plasma, po, 2 mg/kg, dog Lars, single oral 2 mg/kg, fed male beagle dog, cross-over, granulate with 20% SDS in gelatine capsules, read-out: Cmax
  Cmax: 744 ng/mL
[2]; male, beagle, dog, plasma, po, 2 mg/kg, dog Lupo, single oral 2 mg/kg, fed male beagle dog, cross-over, granulate with 20% SDS in gelatine capsules
  concentration at 24 h: 40.3 ng/mL
[2]; male, beagle, dog, plasma, po, 2 mg/kg, dog Lupo, single oral 2 mg/kg, fed male beagle dog, cross-over, granulate with 20% SDS in gelatine capsules, read-out: Cmax
  Cmax: 424 ng/mL
[2]; male, beagle, dog, plasma, po, 2 mg/kg, dog Mickey, single oral 2 mg/kg, fed male beagle dog, cross-over, granulate with 20% SDS in gelatine capsules
  concentration at 24 h: 29.8 ng/mL
[2]; male, beagle, dog, plasma, po, 2 mg/kg, dog Mickey, single oral 2 mg/kg, fed male beagle dog, cross-over, granulate with 20% SDS in gelatine capsules, read-out: Cmax
  Cmax: 496 ng/mL
[2]; [9]
  AUC(0-t): 2910 ng·h/mL
  concentration at 24 h: 36.5 ng/mL
[2]; male, beagle, dog, plasma, po, 2 mg/kg, mean, n=4, single oral 2 mg/kg, fed male beagle dogs, cross-over, granulate with 20% SDS in gelatine capsules, read-out: Cmax
  Cmax: 514 ng/mL
[2]; [10]
  F: 19.1%
[2]; [11]
  Mean Cmax, higher after form A as compared to form B: 1.7 fold
  Mean oral bioavailability, higher after form A as compared to form B: 1.9 fold

## Cc1cc(F)ccc1-c1cc(N2CCS(=O)(=O)CC2)ncc1N(C)C(=O)C(C)(C)c1cc(C(F)(F)F)cc(C(F)(F)F)c1 [Form B, 2-(3,5-bis-trifluoromethyl-phenyl)-N-[6-(1,1-dioxo-1λ^6-thiomorpholin-4-yl)-4-(4-fluoro-2-methyl-phenyl)-pyridin-3-yl]-N-methyl-isobutyramide]
[2]; [4]
  AUC(0–24 h): 949 ng·h/mL
  C(24 h): 17.7 ng/mL
  Cmax: 122 ng/mL
  F: 6.3%
[2]; [5]
  AUC(0–24 h): 3880 ng·h/mL
  C(24 h): 51.7 ng/mL
  Cmax: 631 ng/mL
  F: 21%
[2]; [6]
  AUC(0–24 h): 1130 ng·h/mL
  C(24 h): 23.2 ng/mL
  Cmax: 216 ng/mL
  F: 6.8%
[2]; [7]
  AUC(0–24 h): 1330 ng·h/mL
  C(24 h): 21.4 ng/mL
  Cmax: 251 ng/mL
  F: 8.2%
[2]; [10]
  AUC(0–24 h): 1822 ng·h/mL
  C(24 h): 28.5 ng/mL
  Cmax: 305 ng/mL
  F: 11.0%

## Cc1cc(F)ccc1-c1cc(N2CCS(=O)(=O)CC2)ncc1N(C)C(=O)C(C)(C)c1cc(C(F)(F)F)cc(C(F)(F)F)c1 [Form C, 2-(3,5-bis-trifluoromethyl-phenyl)-N-[6-(1,1-dioxo-1λ^6-thiomorpholin-4-yl)-4-(4-fluoro-2-methyl-phenyl)-pyridin-3-yl]-N-methyl-isobutyramide]
[2]; [12]
  AUC(0-t): 2660 ng·h/mL
  concentration at 24 h: 29.2 ng/mL
[2]; male, beagle, dog, plasma, po, 2 mg/kg, mean, n=4, single oral 2 mg/kg, fed male beagle dogs, finely milled compound with 10% SDS in gelatine capsules, read-out: Cmax
  Cmax: 510 ng/mL
[2]; mean, n=4, single oral 2 mg/kg, fed male beagle dogs, finely milled compound with 10% SDS in gelatine capsules
  F: 13.3%
[2]; [13]
  mean AUC(0–24 h) compared with form A: approximately the same
  mean Cmax compared with form A: approximately the same
